# Measurements from PubChem BioAssay (NCI).
#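 How tested: cells in 96-well plates exposed to compound for 48 hours at five concentrations. At the TGI there is no net growth.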
# Legend:
# Assay in all cases: NCI anticancer screen, dose series, 48 h
# [1] = tested on: 786-0 renal
# [2] = tested on: A498 renal
# [3] = tested on: A549 NSCLC
# [4] = tested on: ACHN renal
# [5] = tested on: BT-549 breast
# [6] = tested on: CAKI-1 renal
# [7] = tested on: COLO 205 colon
# [8] = tested on: DU-145 prostate
# [9] = tested on: EKVX NSCLC
# [10] = tested on: HCC-2998 colon
# [11] = tested on: HCT-116 colon
# [12] = tested on: HCT-15 colon
# [13] = tested on: HL-60(TB) leukemia
# [14] = tested on: HOP-62 NSCLC
# [15] = tested on: HOP-92 NSCLC
# [16] = tested on: HS 578T breast
# [17] = tested on: HT29 colon
# [18] = tested on: IGROV1 ovarian
# [19] = tested on: K-562 leukemia
# [20] = tested on: KM12 colon
# [21] = tested on: LOX IMVI melanoma
# [22] = tested on: M14 melanoma
# [23] = tested on: MALME-3M melanoma
# [24] = tested on: MCF7 breast
# [25] = tested on: MDA-MB-231 breast
# [26] = tested on: MDA-MB-435
# [27] = tested on: MDA-N
# [28] = tested on: MOLT-4 leukemia
# [29] = tested on: NCI-H226 lung
# [30] = tested on: NCI-H23 lung
# [31] = tested on: NCI-H460 lung
# [32] = tested on: NCI-H522 lung
# [33] = tested on: NCI/ADR-RES ovarian
# [34] = tested on: OVCAR-3 ovarian
# [35] = tested on: OVCAR-4 ovarian
# [36] = tested on: OVCAR-5 ovarian
# [37] = tested on: OVCAR-8 ovarian
# [38] = tested on: PC-3 prostate
# [39] = tested on: RPMI-8226 leukemia
# [40] = tested on: RXF 393 renal
# [41] = tested on: SF-268 CNS
# [42] = tested on: SF-295 CNS
# [43] = tested on: SF-539 CNS
# [44] = tested on: SK-MEL-2 melanoma
# [45] = tested on: SK-MEL-28 melanoma
# [46] = tested on: SK-MEL-5 melanoma
# [47] = tested on: SN12C renal
# [48] = tested on: SNB-19 CNS
# [49] = tested on: SR leukemia
# [50] = tested on: SW-620 colon
# [51] = tested on: TK-10 renal
# [52] = tested on: U251 CNS
# [53] = tested on: UACC-257 melanoma
# [54] = tested on: UACC-62 melanoma
# [55] = tested on: UO-31 renal
# [56] = tested on: CCRF-CEM leukemia
# [57] = tested on: SNB-75 CNS
# [58] = tested on: T-47D breast
structure (smiles),measurement,setting,value
Cc1ccc(-c2c(C#N)c(N)[nH]c(=S)c2C#N)cc1,TGI,[1],77.5 µM
same,TGI,[2],> 100 µM
same,TGI,[3],> 100 µM
same,TGI,[4],> 100 µM
same,TGI,[5],> 100 µM
same,TGI,[6],> 100 µM
same,TGI,[7],69 µM
same,TGI,[8],> 100 µM
same,TGI,[9],66.1 µM
same,TGI,[10],> 100 µM
same,TGI,[11],> 100 µM
same,TGI,[12],> 100 µM
same,TGI,[13],52.8 µM
same,TGI,[14],> 100 µM
same,TGI,[15],> 100 µM
same,TGI,[16],51.4 µM
same,TGI,[17],> 100 µM
same,TGI,[18],> 100 µM
same,TGI,[19],> 100 µM
same,TGI,[20],> 100 µM
same,TGI,[21],> 100 µM
same,TGI,[22],> 100 µM
same,TGI,[23],62.2 µM
same,TGI,[24],> 100 µM
same,TGI,[25],> 100 µM
same,TGI,[26],65.4 µM
same,TGI,[27],41.3 µM
same,TGI,[28],76.9 µM
same,TGI,[29],> 100 µM
same,TGI,[30],> 100 µM
same,TGI,[31],> 100 µM
same,TGI,[32],55.6 µM
same,TGI,[33],> 100 µM
same,TGI,[34],> 100 µM
same,TGI,[35],> 100 µM
same,TGI,[36],> 100 µM
same,TGI,[37],> 100 µM
same,TGI,[38],> 100 µM
same,TGI,[39],65.8 µM
same,TGI,[40],46.5 µM
same,TGI,[41],> 100 µM
same,TGI,[42],> 100 µM
same,TGI,[43],> 100 µM
same,TGI,[44],72.6 µM
same,TGI,[45],> 100 µM
same,TGI,[46],> 100 µM
same,TGI,[47],76 µM
same,TGI,[48],> 100 µM
same,TGI,[49],66.9 µM
same,TGI,[50],> 100 µM
same,TGI,[51],> 100 µM
same,TGI,[52],> 100 µM
same,TGI,[53],> 100 µM
same,TGI,[54],> 100 µM
same,TGI,[55],> 100 µM
CN1CCN(C(=S)N(C(=O)c2cccs2)c2ccccc2)CC1,TGI,[1],> 100 µM
same,TGI,[3],> 100 µM
same,TGI,[4],> 100 µM
same,TGI,[5],> 100 µM
same,TGI,[56],> 100 µM
same,TGI,[7],> 100 µM
same,TGI,[8],> 100 µM
same,TGI,[10],> 100 µM
same,TGI,[12],> 100 µM
same,TGI,[13],> 100 µM
same,TGI,[15],> 100 µM
same,TGI,[16],> 100 µM
same,TGI,[17],> 100 µM
same,TGI,[18],> 100 µM
same,TGI,[19],> 100 µM
same,TGI,[20],> 100 µM
same,TGI,[21],> 100 µM
same,TGI,[22],> 100 µM
same,TGI,[23],> 100 µM
same,TGI,[24],> 100 µM
same,TGI,[25],> 100 µM
same,TGI,[26],> 100 µM
same,TGI,[27],> 100 µM
same,TGI,[28],> 100 µM
same,TGI,[29],> 100 µM
same,TGI,[30],> 100 µM
same,TGI,[31],> 100 µM
same,TGI,[32],> 100 µM
same,TGI,[34],> 100 µM
same,TGI,[35],> 100 µM
same,TGI,[36],> 100 µM
same,TGI,[37],> 100 µM
same,TGI,[39],> 100 µM
same,TGI,[40],> 100 µM
same,TGI,[41],> 100 µM
same,TGI,[44],> 100 µM
same,TGI,[45],> 100 µM
same,TGI,[46],> 100 µM
same,TGI,[47],> 100 µM
same,TGI,[48],> 100 µM
same,TGI,[57],> 100 µM
same,TGI,[49],> 100 µM
same,TGI,[50],> 100 µM
same,TGI,[58],> 100 µM
same,TGI,[51],> 100 µM
same,TGI,[52],> 100 µM
same,TGI,[53],> 100 µM
same,TGI,[54],> 100 µM
same,TGI,[55],> 100 µM
C=C(C)C[C@H](Sc1nc2ccccc2s1)[C@H](C)O,TGI,[1],> 100 µM
same,TGI,[2],79 µM
same,TGI,[3],> 100 µM
same,TGI,[4],> 100 µM
same,TGI,[5],> 100 µM
same,TGI,[6],> 100 µM
same,TGI,[7],> 100 µM
same,TGI,[8],> 100 µM
same,TGI,[9],> 100 µM
same,TGI,[10],> 100 µM
same,TGI,[11],> 100 µM
same,TGI,[12],> 100 µM
same,TGI,[13],44.9 µM
same,TGI,[14],> 100 µM
same,TGI,[15],> 100 µM
same,TGI,[16],> 100 µM
same,TGI,[17],> 100 µM
same,TGI,[18],> 100 µM
same,TGI,[19],> 100 µM
same,TGI,[20],> 100 µM
same,TGI,[21],> 100 µM
same,TGI,[22],> 100 µM
same,TGI,[23],72 µM
same,TGI,[24],> 100 µM
same,TGI,[25],> 100 µM
same,TGI,[26],> 100 µM
same,TGI,[27],> 100 µM
same,TGI,[28],43 µM
same,TGI,[29],74.1 µM
same,TGI,[30],> 100 µM
same,TGI,[31],> 100 µM
same,TGI,[32],81.9 µM
same,TGI,[33],> 100 µM
same,TGI,[34],75.7 µM
same,TGI,[35],> 100 µM
same,TGI,[36],> 100 µM
same,TGI,[37],> 100 µM
same,TGI,[38],63.8 µM
same,TGI,[39],98.4 µM
same,TGI,[40],> 100 µM
same,TGI,[41],> 100 µM
same,TGI,[42],> 100 µM
same,TGI,[43],> 100 µM
same,TGI,[44],69.9 µM
same,TGI,[45],> 100 µM
same,TGI,[46],36.8 µM
same,TGI,[47],> 100 µM
same,TGI,[48],> 100 µM
same,TGI,[49],> 100 µM
same,TGI,[50],> 100 µM
same,TGI,[51],> 100 µM
same,TGI,[52],> 100 µM
same,TGI,[53],> 100 µM
same,TGI,[54],> 100 µM
same,TGI,[55],> 100 µM
